Assay: In situ rotigotine salt screening (precipitate formation in ethanol/HFA 227 solution formulation)
Type: physicochemical
Settings: for Observation, Immediate / Observation, 1 week at RT / Observation, 1 week at 5° C.: 1 mg/mL rotigotine free base plus acid in 10% (w/w) ethanol in HFA 227; for Observation, Immediate: immediately upon preparation; for Observation, 1 week at RT: stored 1 week at room temperature; for Observation, 1 week at 5° C.: another week at 5° C. after 1 week at RT
Protocol: Rotigotine, bulk drug substance, was purchased from Chemagis (Perrigo API). A stock solution of rotigotine was prepared by dissolving rotigotine particles in ethanol at 10 mg/mL. With 1.5 mL rotigotine stock solution added to formulation bottles, each formulation bottle contained 15 mg rotigotine. For preparation of acid stock solutions, it was assumed that complete reaction or ion-pairing between rotigotine and acid. Based on the molecular weight and number of anions of each acid as listed in Table 1, acids stock solutions were prepared by dissolving the required amount in ethanol.
Each formulation bottle was filed with 1.5 mL of rotigotine stock solution and 1.0 ml, of acid stock solution. The formulation bottles (PET bottles) were then sealed with continuous valves and vortexed for 30 seconds to mix the solution well. Finally, 17.6 g of 1,1,1,2,3,3,3-heptafluoropropane (HFA227 (Mexichem)) to make a final volume of 15 mL of rotigotine formulation. All the bottles were hand shaken for 10 seconds.
All in situ salt screening samples were made as 1 mg/mL of rotigtine free base in 10% (w/w) ethanol in HFA 227. Acids corresponding to the salt forms in Table 1 were added according to the molar ratio with rotigotine for complete reaction. As 1 mg/mL was the minimal required dose at the time of experiment, all formulations were tested at this level to screen out non-solution salt formulations.
These were the rotigotine citrate, fumarate, succinate, sulfate, tartrate, xinafoate salt formulations. […] rotigotine salt formulations were immediately ruled out as the precipitate formation was not desired. All clear solution samples were stored at room temperature (RT) for 1 week. […] These were rotigotine acetate, benzoate and mesylate salt formulations. These 3 rotigotine salt formulations were also ruled out as precipitate formation is not desired. The rest of the samples remained as clear solutions (stable) at after another week at 5° C.

| Observation, Immediate | Observation, 1 week at RT | Observation, 1 week at 5° C. | Solution formulation at the minimum required concentration (1 mg/mL, 10% (w/w) ethanol in HFA 227) | Compound |
| --- | --- | --- | --- | --- |
| solution | red precipitate | – | – | CC(=O)O.CCCN(CCc1cccs1)[C@H]1CCc2c(O)cccc2C1 [Acetate, rotigotine acetate] |
| solution | solution | solution | – | CC(O)C(=O)O.CCCN(CCc1cccs1)[C@H]1CCc2c(O)cccc2C1 [Lactate, rotigotine lactate] |
| white precipitate | – | – | – | O=S(=O)(O)O [Sulfate] |
| solution | red precipitate | – | – | Benzoate |
| white precipitate | – | – | – | Fumarate |
| white precipitate | – | – | – | Tartrate |
| white precipitate | – | – | – | rotigotine citrate |
| solution | solution | solution | – | rotigotine glycolate |
| solution | solution | solution | stayed in solution | rotigotine maleate |
| solution | solution | solution | – | rotigotine palmitate |
| solution | solution | solution | – | rotigotine pamoate |
| solution | solution | solution | – | rotigotine propionate |
| solution | solution | solution | – | rotigotine stearate |

Reference: patent publication US20140377365A1, “SUSTAINED-RELEASE FORMULATION OF ROTIGOTINE” (MAP Pharmaceuticals, Inc., priority 2013, published 2014)
